Laboratory results as given in ChEMBL document CHEMBL1145654, “Phototoxic and Insecticidal Activities of Chromenes and Benzofurans from Encelia” (J Nat Prod, 1983).
Activity calls are given as the source filed them. No cut-off for these calls is given here.

Legend:
Format in all cases: functional, organism-based
Staphylococcus = experiment: Phototoxicity in 2 hrs UV irradiated Staphylococcus albus measured after 24 hrs
Candida albicans = experiment: Phototoxicity in 2 hrs UV irradiated Candida albicans measured after 24 hrs
Saccharomyces cerevisiae = experiment: Phototoxicity in 2 hrs UV irradiated Saccharomyces cerevisiae measured after 24 hrs
Escherichia coli = experiment: Phototoxicity in 2 hrs UV irradiated Escherichia coli measured after 24 hrs
Bacillus subtilis = experiment: Phototoxicity in 2 hrs UV irradiated Bacillus subtilis measured after 24 hrs
Pseudomonas fluorescens = experiment: Phototoxicity in 2 hrs UV irradiated Pseudomonas fluorescens measured after 24 hrs
Oncopeltus fasciatus [1] = experiment: Antijuvenile hormone activity in first instar Oncopeltus fasciatus larvae at 5 mg to 100 ug/petri dish
Oncopeltus fasciatus [2] = experiment: Insecticidal activity in first instar Oncopeltus fasciatus larvae at 5 mg/petri dish
Oncopeltus fasciatus [3] = experiment: Insecticidal activity in first instar Oncopeltus fasciatus larvae at 1.2 mg/petri dish after 3 to 4 days

Compound | Activity (Staphylococcus) | Activity (Candida albicans) | Activity (Saccharomyces cerevisiae) | Activity (Escherichia coli) | Activity (Bacillus subtilis) | Activity (Pseudomonas fluorescens) | Activity (Oncopeltus fasciatus [1]) | Activity (Oncopeltus fasciatus [2]) | Activity (Oncopeltus fasciatus [3])
COc1cc2c(cc1OC)OC(C)(C)C=C2 | inactive | inactive | inactive | inactive | inactive | inactive | inactive | – | –
C=C(C)c1cc2cc(C(C)=O)c(OC)cc2o1 | inactive | Active | Active | inactive | Active | Active | – | – | –
COc1cc2c(cc1[C@](C)(O)CC(C)c1cc3cc(C(C)=O)c(O)cc3o1)C=CC(C)(C)O2 (stereo not given in full) | inactive | inactive | inactive | inactive | inactive | inactive | – | – | –
CC(=O)c1cc2c(cc1O)OC(C)(C)C=C2 | inactive | Active | Active | inactive | Active | inactive | inactive | Active | –
C=C(C)c1cc2cc(C(C)=O)c(O)cc2o1 | inactive | inactive | inactive | inactive | inactive | inactive | inactive | – | –
COc1cc2c(cc1C(C)=O)C=CC(C)(C)O2 | inactive | Active | Active | inactive | Active | inactive | inactive | – | Active
COc1ccc2c(c1)OC(C)(C)C=C2 | inactive | inactive | inactive | inactive | inactive | inactive | inactive | – | –
COc1c2occc2cc2ccc(=O)oc12 | Active | Active | Active | Active | Active | inactive | – | – | –
